Results: patent publication US20150353495A1 (PORTOLA PHARMACEUTICALS, INC., priority 2010, published 2015)

How the values were obtained:
JAK2 = molecular target: T1, JAK2 (Homo sapiens, UniProt O60674); assay: Z'-LYTE kinase assay JAK2; format: biochemical
T1 construct: 5 μl of catalytic domain recombinant Kinase enzyme+Tyr peptide substrate (Invitrogen, CA); purchased Invitrogen
Method in brief: (§1)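 Z′-LYTE FRET, Tyr6 peptide, recombinant catalytic domain + ATP, 1 h RT, 1% DMSO final, duplicates; protease development 1 h RT; fluorescence read.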

JAK3 = molecular target: T2, JAK3 (Homo sapiens, UniProt P52333); assay: Z'-LYTE kinase assay JAK3; format: biochemical
T2 construct: 5 μl of catalytic domain recombinant Kinase enzyme+Tyr peptide substrate (Invitrogen, CA); purchased Invitrogen
T2 sequence (P52333 822-1111 limits assumed): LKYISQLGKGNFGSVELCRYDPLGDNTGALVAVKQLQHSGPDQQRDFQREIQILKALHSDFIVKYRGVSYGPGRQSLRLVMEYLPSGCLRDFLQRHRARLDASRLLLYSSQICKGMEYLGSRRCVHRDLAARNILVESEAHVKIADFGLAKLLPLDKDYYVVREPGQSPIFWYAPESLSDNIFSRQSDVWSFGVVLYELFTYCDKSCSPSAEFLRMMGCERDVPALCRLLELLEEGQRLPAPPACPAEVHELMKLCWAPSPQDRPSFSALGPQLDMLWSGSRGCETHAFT
Method in brief: as §1

[1] = test system: JAK1/3 signaling to STAT6 in Ramos B cells; assay: IL4 stimulation of JAK1/3 signaling to STAT6 in Ramos B cells (pSTAT6 Y641, FACS); format: cell-based; conditions: Homo sapiens; for inhibition at 0.2 µM: 0.2 uM compound, read-out: IL-4/STAT6 in Ramos Percent Inhibition at 0.2 uM; for inhibition at 1 µM: 1.0 uM compound, read-out: IL-4/STAT6 in Ramos Percent Inhibition at 1.0 uM
Method in brief: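 Phospho-STAT6 Y641 was measured by FACS using a PE-labelled antibody after fixation (2% paraformaldehyde) and methanol permeabilization. Before this, Ramos cells were exposed to compound for 1 h, then to 15 ng IL4 for 15 min.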

TYK2 = molecular target: T3, TYK2 (Homo sapiens, UniProt P29597); assay: Z'-LYTE kinase assay TYK2; format: biochemical
T3 construct: 5 μl of catalytic domain recombinant Kinase enzyme+Tyr peptide substrate (Invitrogen, CA); purchased Invitrogen
T3 sequence (P29597 897-1176 limits assumed): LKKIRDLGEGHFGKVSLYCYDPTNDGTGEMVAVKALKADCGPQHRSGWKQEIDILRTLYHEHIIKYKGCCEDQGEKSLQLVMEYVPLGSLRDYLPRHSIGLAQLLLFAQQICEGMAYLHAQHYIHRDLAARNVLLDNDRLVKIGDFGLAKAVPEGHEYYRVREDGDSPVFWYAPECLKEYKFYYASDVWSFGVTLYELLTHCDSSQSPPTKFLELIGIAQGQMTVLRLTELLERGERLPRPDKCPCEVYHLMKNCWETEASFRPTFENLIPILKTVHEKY
Method in brief: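 IC50 derived by 4-parameter logistic fit of percent substrate phosphorylation relative to uninhibited wells. Tyr6 peptide phosphorylated by recombinant TYK2 catalytic domain for 1 h at room temperature (1% DMSO), cleaved by development protease 1 h, FRET emission ratio 445/520 nm.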

JAK1 = molecular target: T4, JAK1 (Homo sapiens, UniProt P23458); assay: Z'-LYTE kinase assay JAK1; format: biochemical
T4 construct: 5 μl of catalytic domain recombinant Kinase enzyme+Tyr peptide substrate (Invitrogen, CA); purchased Invitrogen
T4 sequence (P23458 875-1153 limits assumed): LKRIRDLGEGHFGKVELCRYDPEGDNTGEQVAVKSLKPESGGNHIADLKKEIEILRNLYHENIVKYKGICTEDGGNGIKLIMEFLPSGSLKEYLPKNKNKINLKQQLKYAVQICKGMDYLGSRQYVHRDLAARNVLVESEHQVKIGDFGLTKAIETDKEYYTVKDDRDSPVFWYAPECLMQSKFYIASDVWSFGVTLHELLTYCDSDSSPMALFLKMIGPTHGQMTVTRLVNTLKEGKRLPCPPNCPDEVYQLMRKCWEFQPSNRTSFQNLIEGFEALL
Method in brief: as §1

T1 sequence (O60674 849-1124 limits assumed): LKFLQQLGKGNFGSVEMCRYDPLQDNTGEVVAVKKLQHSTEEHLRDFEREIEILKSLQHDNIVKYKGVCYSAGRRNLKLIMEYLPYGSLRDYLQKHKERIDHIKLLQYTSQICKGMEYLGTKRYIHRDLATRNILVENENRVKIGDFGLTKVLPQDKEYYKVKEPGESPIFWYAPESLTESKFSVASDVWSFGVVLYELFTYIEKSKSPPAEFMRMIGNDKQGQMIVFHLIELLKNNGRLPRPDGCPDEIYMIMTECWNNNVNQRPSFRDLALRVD

IC50 (JAK2) [nM]	IC50 (JAK3) [nM]	IC50 (TYK2) [nM]	IC50 (JAK1) [nM]	SMILES	inhibition at 0.2 µM [1] [%]	inhibition at 1 µM [1] [%]
100 to 1000	1 to 10	100 to 1000	100 to 1000	NC(=O)c1cnc(Nc2ccc(C3CCN(C4CCCC4)CC3)cc2)cc1NCc1ccccc1F [Example 109, 6-(4-(1-cyclopentylpiperidin-4-yl)phenylamino)-4-(2-fluorobenzylamino)nicotinamide]	23	60
100 to 1000	10 to 100	100 to 1000	100 to 1000	CC(=O)N1CCC(c2ccc(Nc3cc(NCc4ccccc4F)c(C(N)=O)cn3)cc2)CC1 [Example 115, 6-(4-(1-acetylpiperidin-4-yl)phenylamino)-4-(2-fluorobenzylamino)nicotinamide]	31	64
100 to 1000	1 to 10	100 to 1000	100 to 1000	N#CCC(=O)N1CCC(c2ccc(Nc3cc(NCc4ccccc4F)c(C(N)=O)cn3)cc2)CC1 [Example 117, 6-(4-(1-(2-cyanoacetyl)piperidin-4-yl)phenylamino)-4-(2-fluorobenzylamino)nicotinamide]	43	67
100 to 1000	1 to 10	100 to 1000	100 to 1000	CC(=O)N1CCN(c2ccc(Nc3cc(NCc4cccnc4)c(C(N)=O)cn3)cc2)CC1 [Example 233]	17	33
100 to 1000	10 to 100	100 to 1000	100 to 1000	CN(C)C(=O)c1cccc(Nc2cc(NCc3ccccc3)c(C(N)=O)cn2)c1 [Example 247, 4-(benzylamino)-6-(3-(dimethylcarbamoyl)phenylamino)nicotinamide]	6	24
100 to 1000	1 to 10	100 to 1000	100 to 1000	CN(C)C(=O)c1ccc(Nc2cc(NCc3ccccc3)c(C(N)=O)cn2)cc1 [Example 248, 4-(benzylamino)-6-(4-(dimethylcarbamoyl)phenylamino)nicotinamide]	24	50
100 to 1000	10 to 100	> 1000	> 1000	NC(=O)c1cnc(Nc2ccc(N3CCOCC3)c(Cl)c2)cc1NCc1ccccc1 [Example 251, 4-(benzylamino)-6-(3-chloro-4-morpholinophenylamino)nicotinamide]	17	51
100 to 1000	1 to 10	> 1000	> 1000	NC(=O)c1cnc(Nc2ccc(CN3CCOCC3)cc2)cc1NCc1ccccc1 [Example 431, 4-(benzylamino)-6-(4-(morpholinomethyl)phenylamino)nicotinamide]	7	24
100 to 1000	10 to 100	> 1000	100 to 1000	COCCOc1cccc(Nc2cc(NCc3ccccc3)c(C(N)=O)cn2)c1 [Example 433, -(benzylamino)-6-(3-(2-methoxyethoxyl)phenylamino)nicotinamide]	18	27

Further lines, the compound ahead of its results:

SMILES	IC50 (JAK2) [nM]	IC50 (JAK3) [nM]	IC50 (TYK2) [nM]	IC50 (JAK1) [nM]	inhibition at 0.2 µM [1] [%]	inhibition at 1 µM [1] [%]
CN(C)C(=O)c1ccc(Nc2cc(NCc3cc(F)ccc3F)c(C(N)=O)cn2)cc1 [Example 92, 4-(2,5-difluorobenzylamino)-6-(4-(dimethylcarbamoyl)phenylamino)nicotinamide]	10 to 100	1 to 10	100 to 1000	100 to 1000	41	67
NC(=O)c1cnc(Nc2ccc(N3CCCCC3=O)cc2)cc1NCc1cc(F)ccc1F [Example 94, 4-(2,5-difluorobenzylamino)-6-(4-(2-oxopiperidin-1-yl)phenylamino)nicotinamide]	10 to 100	1 to 10	100 to 1000	100 to 1000	35	62
NC(=O)c1cnc(Nc2ccc(C3CCNCC3)cc2)cc1NCc1ccccc1F [Example 106, 4-(2-fluorobenzylamino)-6-(4-(piperidin-4-yl)phenylamino)nicotinamide]	100 to 1000	1 to 10	100 to 1000	100 to 1000	28	49
COCC(=O)N1CCC(c2ccc(Nc3cc(NCc4ccccc4F)c(C(N)=O)cn3)cc2)CC1 [Example 116, 4-(2-fluorobenzylamino)-6-(4-(1-(2-methoxyacetyl)piperidin-4-yl)phenylamino)nicotinamide]	10 to 100	1 to 10	100 to 1000	100 to 1000	25	43
CC(=O)N1CCN(c2ccc(Nc3cc(NCc4cccs4)c(C(N)=O)cn3)cc2)CC1 [Example 122, 6-(4-(4-acetylpiperazin-1-yl)phenylamino)-4-(thiophen-2-ylmethylamino)nicotinamide]	100 to 1000	1 to 10	10 to 100	100 to 1000	34	57
NC(=O)c1cnc(Nc2cccc(OCCN3CCOCC3)c2)cc1NCc1cccc(F)c1 [Example 228]	100 to 1000	1 to 10	> 1000	100 to 1000	24	48
CC(=O)N1CCN(c2ccc(Nc3cc(NCC4CCCC4)c(C(N)=O)cn3)cc2)CC1 [Example 245, 6-(4-(4-acetylpiperazin-1-yl)phenylamino)-4-(cyclopentylmethylamino)nicotinamide]	10 to 100	1 to 10	10 to 100	100 to 1000	14	38
CNC(=O)c1cccc(Nc2cc(NCc3ccccc3)c(C(N)=O)cn2)c1 [Example 246, 4-(benzylamino)-6-(3-(methylcarbamoyl)phenylamino)nicotinamide]	100 to 1000	10 to 100	> 1000	100 to 1000	6	11
CC(=O)N1CCN(c2ccc(Nc3cc(N[C@H]4CCc5ccccc54)c(C(N)=O)cn3)cc2)CC1 [Example 255, (S)-6-(4-(4-acetylpiperazin-1-yl)phenylamino)-4-(2,3-dihydro-1H-inden-1-ylamino)nicotinamide]	100 to 1000	10 to 100	100 to 1000	> 1000	11	18
CC(=O)N1CCN(c2ccc(Nc3cc(NCc4cccc(Cl)c4)c(C(N)=O)cn3)cc2)CC1 [Example 257, 6-(4-(4-acetylpiperazin-1-yl)phenylamino)-4-(3-chlorobenzylamino)nicotinamide]	10 to 100	1 to 10	100 to 1000	100 to 1000	34	65
CC(=O)N1CCN(c2ccc(Nc3cc(NCc4ccccc4F)c(C(N)=O)cn3)cc2)CC1 [Example 258, 6-(4-(4-acetylpiperazin-1-yl)phenylamino)-4-(2-fluorobenzylamino)nicotinamide]	10 to 100	1 to 10	100 to 1000	100 to 1000	39	63
NC(=O)c1cnc(Nc2cccc(OCC(=O)N3CCOCC3)c2)cc1NCc1ccccc1 [Example 430, 4-(benzylamino)-6-(3-(2-morpholino-2-oxoethoxy)phenylamino)nicotinamide]	100 to 1000	1 to 10	100 to 1000	100 to 1000	15	36
COCCOc1ccc(Nc2cc(NCc3ccccc3)c(C(N)=O)cn2)cc1 [Example 432, 4-(benzylamino)-6-(4-(2-methoxyethoxyl)phenylamino)nicotinamide]	100 to 1000	10 to 100	> 1000	> 1000	16	17
